Experimental data taken from patent publication US20060035829A1, “Chemokine combinations to mobilize progenitor/stem cells” (AnorMED Inc., priority 2004, published 2006).

Legend:
[1] = tested on: peripheral blood cells; test: Peripheral blood differential summary (complete blood counts, manual differentials); type: in vivo; conditions: BALB/c mice
Experimental: Mobilization experiments were performed in BALB/c mice (3 mice group). For mobilization with AMD3100 or GROβ alone, PBSC mobilization was quantified at the peak of mobilization determined for either agent in previous experiments. Thus, PBSC mobilization was quantified at 15 mins following an s.c. injection of 2.5 mg/kg GROβ and at 1 hour following an s.c. injection of 5 mg/kg AMD3100.
In the combination experiment, PBSC mobilization was quantitated at 5, 15, 30, 60 and 150 minutes after a single subcutaneous injection of 2.5 mg/kg GROβ (R & D Systems) in saline and 5 mg/kg AMD3100. The compounds were injected separately and simultaneously at different s.c. sites. Injections were scheduled so that control and mobilized mice were evaluated at the same time in every experiment. Mice were killed by CO2 asphyxiation and blood was obtained by cardiac puncture using syringes coated with EDTA (ethylenediaminetetra acetic acid). PBMC's were obtained by separation of peripheral blood (0.4 mL) on Lympholyte-M (Cedarlane Labs, Hornby, ON, Canada). Complete blood counts (CBC's) were performed on a Hemavet Mascot (CDC Technologies, Oxford, Conn.). Manual differentials were performed on Wright-Giemsa-stained (Hema-Tek 1000, Bayer, Elkhart, Ind.) blood smears or spleen and bone marrow cell cytospin preparations (Shandon, Pittsburgh, Pa.).

[2] = tested on: CFU-GM progenitor cells in peripheral blood; test: Peripheral blood progenitor cell (PBSC) mobilization, CFU-GM assay of PBMC; type: in vivo; conditions: BALB/c mice, mean (X)
Experimental: Experimental procedures are as previously described (Pelus, L. M., et al., Blood (2001) 97:1534-1542; Blood (2004) 103:110-119). […] Mobilization experiments were performed in BALB/c mice (3 mice group). For mobilization with AMD3100 or GROβ alone, PBSC mobilization was quantified at the peak of mobilization determined for either agent in previous experiments. Thus, PBSC mobilization was quantified at 15 mins following an s.c. injection of 2.5 mg/kg GROβ and at 1 hour following an s.c. injection of 5 mg/kg AMD3100. In the combination experiment, PBSC mobilization was quantitated at 5, 15, 30, 60 and 150 minutes after a single subcutaneous injection of 2.5 mg/kg GROβ (R & D Systems) in saline and 5 mg/kg AMD3100. The compounds were injected separately and simultaneously at different s.c. sites. Injections were scheduled so that control and mobilized mice were evaluated at the same time in every experiment. Mice were killed by CO2 asphyxiation and blood was obtained by cardiac puncture using syringes coated with EDTA (ethylenediaminetetra acetic acid). PBMC's were obtained by separation of peripheral blood (0.4 mL) on Lympholyte-M (Cedarlane Labs, Hornby, ON, Canada). Complete blood counts (CBC's) were performed on a Hemavet Mascot (CDC Technologies, Oxford, Conn.). Manual differentials were performed on Wright-Giemsa-stained (Hema-Tek 1000, Bayer, Elkhart, Ind.) blood smears or spleen and bone marrow cell cytospin preparations (Shandon, Pittsburgh, Pa.). CFU-GM Assay PBMC's were assayed for CFU-GM in McCoy 5A media with 15% heat-inactivated fetal bovine serum (Hyclone Sterile Systems, Logan, Utah) and 0.3% agar (Difco Laboratories, Detroit, Mich.). PBMC's were cultured at 2×10^5/mL. CFU-GM were stimulated with 10 ng/mL recombinant murine GM-CSF (rmGM-CSF), 10 ng/mL rmIL-1α, and 50 ng/mL stem cell factor (SCF). Triplicate cultures from individual animals were incubated at 37° C., 5% CO2, 5% O2 in air for 7 days. Total CFU-GM/mL blood was determined by multiplying CFU frequencies by PBMC/ml blood corrected for white blood cell (WBC) recovery after Lympholyte-M separation.

Molecule | % LYMPH ([1]; 60 min after s.c. injection) | % MONO ([1]; 60 min after s.c. injection) | % PMN ([1]; 60 min after s.c. injection) | LYMPH ([1]; 60 min after s.c. injection) | MONO ([1]; 60 min after s.c. injection) | PMN ([1]; 60 min after s.c. injection) | WBC ([1]; 60 min after s.c. injection) | CFU-GM/ml ([2]; 60 min after s.c. injection (GROβ 2.5 mg/kg, AMD3100 5 mg/kg)) | CFU-GM Mobilized Above Control ([2]; 60 min after s.c. injection) | Fold Inc (CFU-GM/ml over PBS control) ([2]; 60 min after s.c. injection) | % LYMPH ([1]; 15 min after s.c. injection) | % MONO ([1]; 15 min after s.c. injection) | % PMN ([1]; 15 min after s.c. injection) | LYMPH ([1]; 15 min after s.c. injection) | MONO ([1]; 15 min after s.c. injection) | PMN ([1]; 15 min after s.c. injection) | WBC ([1]; 15 min after s.c. injection) | CFU-GM/ml ([2]; 15 min after s.c. injection (GROβ 2.5 mg/kg, AMD3100 5 mg/kg)) | CFU-GM Mobilized Above Control ([2]; 15 min after s.c. injection) | Fold Inc (CFU-GM/ml over PBS control) ([2]; 15 min after s.c. injection)
c1cc(CN2CCCNCCNCCCNCC2)ccc1CN1CCCNCCNCCCNCC1 [AMD3100, 1,1′-[1,4-phenylene-bis(methylene)]-bis-1,4,8,11-tetraazacyclotetradecane] | 59.17% | 3.27% | 36.61% | 8.54 | 0.47 | 5.35 | 14.49 | 698.19 CFU-GM/ml | 576.15 | 5.72 | – | – | – | – | – | – | – | – | – | –
GROβ: chemokine GROβ (R & D Systems) in saline; acts via the CXCR2 receptor | – | – | – | – | – | – | – | – | – | – | 65.19% | 5.65% | 27.35% | 7.76 | 0.67 | 3.34 | 11.98 | 2505.54 CFU-GM/ml | 2383.50 | 20.53
